How the values were obtained:
Type in all cases: biochemical
[1] = target: PI3Kα (Homo sapiens (Human), UniProt P42336); assay: PI3K Enzyme Assay (Example A2), PI3Kα; settings: assay of Example A2, 1000 μM ATP
Method: (§1) PI3K isoforms α, β, δ and γ are purchased from Millipore (Bedford, Mass.).
(§2) The kinase reactions are conducted in clear-bottom 96-well plate from Thermo Fisher Scientific in a final volume of 24 μL. Inhibitors are first diluted serially in DMSO and added to the plate wells before the addition of other reaction components. The final concentration of DMSO in the assay is 0.5%. […] The reaction mixture is prepared containing 50 μM PIP2, kinase and varying concentration of inhibitors. […] Reactions are incubated for 180 minutes and terminated by the addition of 100 μL of 1 M potassium phosphate pH 8.0, 30 mM EDTA quench buffer. A 100 μL aliquot of the reaction solution are then transferred to 96-well Millipore MultiScreen IP 0.45 μm PVDF filter plate (The filter plate is prewetted with 200 μL 100% ethanol, distilled water, and 1 M potassium phosphate pH 8.0, respectively). […] After drying by aspiration and blotting, the plate is air dried in an incubator at 37° C. overnight. Packard TopCount adapter (Millipore) is then attached to the plate followed with addition of 120 μL Microscint 20 scintillation cocktail (Perkin Elmer) in each well. After the plate sealing, the radioactivity of the product is determined by scintillation counting on Topcount (Perkin-Elmer). […]

[2] = target: PI3Kδ (Homo sapiens (Human), UniProt O00329); assay: PI3K Enzyme Assay (Example A2), PI3Kδ; settings: assay of Example A2, 1000 μM ATP
Method: as §1, §2

[3] = target: PI3Kβ (Homo sapiens (Human), UniProt P42338); assay: PI3K Enzyme Assay (Example A2), PI3Kβ; settings: assay of Example A2, 1000 μM ATP
Method: as §1, §2

[4] = target: PI3Kγ (Homo sapiens (Human), UniProt P48736); assay: PI3K Enzyme Assay (Example A2), PI3Kγ; settings: assay of Example A2, 1000 μM ATP
Method: as §1, §2

[5] = target: PI3Kδ (p110δ/p85α) (Homo sapiens (Human), UniProt O00329); assay: PI3Kδ Scintillation Proximity Assay (Example A3); settings: assay of Example A3, 20 μM ATP, 20 μM PIP2
Method: The kinase reaction was conducted in polystyrene 384-well matrix white plate from Thermo Fisher Scientific in a final volume of 25 μL. Inhibitors were first diluted serially in DMSO and added to the plate wells before the addition of other reaction components. The final concentration of DMSO in the assay was 0.5%. The PI3K assays were carried out at room temperature in 20 mM MOPS, pH 6.7, 10 mM MgCl2, 5 mM DTT and CHAPS 0.03%. […] IC50 determination was performed by fitting the curve of percent control activity versus the log of the inhibitor concentration using the GraphPad Prism 3.0 software.

PI3Kδ, sequence (O00329 whole entry): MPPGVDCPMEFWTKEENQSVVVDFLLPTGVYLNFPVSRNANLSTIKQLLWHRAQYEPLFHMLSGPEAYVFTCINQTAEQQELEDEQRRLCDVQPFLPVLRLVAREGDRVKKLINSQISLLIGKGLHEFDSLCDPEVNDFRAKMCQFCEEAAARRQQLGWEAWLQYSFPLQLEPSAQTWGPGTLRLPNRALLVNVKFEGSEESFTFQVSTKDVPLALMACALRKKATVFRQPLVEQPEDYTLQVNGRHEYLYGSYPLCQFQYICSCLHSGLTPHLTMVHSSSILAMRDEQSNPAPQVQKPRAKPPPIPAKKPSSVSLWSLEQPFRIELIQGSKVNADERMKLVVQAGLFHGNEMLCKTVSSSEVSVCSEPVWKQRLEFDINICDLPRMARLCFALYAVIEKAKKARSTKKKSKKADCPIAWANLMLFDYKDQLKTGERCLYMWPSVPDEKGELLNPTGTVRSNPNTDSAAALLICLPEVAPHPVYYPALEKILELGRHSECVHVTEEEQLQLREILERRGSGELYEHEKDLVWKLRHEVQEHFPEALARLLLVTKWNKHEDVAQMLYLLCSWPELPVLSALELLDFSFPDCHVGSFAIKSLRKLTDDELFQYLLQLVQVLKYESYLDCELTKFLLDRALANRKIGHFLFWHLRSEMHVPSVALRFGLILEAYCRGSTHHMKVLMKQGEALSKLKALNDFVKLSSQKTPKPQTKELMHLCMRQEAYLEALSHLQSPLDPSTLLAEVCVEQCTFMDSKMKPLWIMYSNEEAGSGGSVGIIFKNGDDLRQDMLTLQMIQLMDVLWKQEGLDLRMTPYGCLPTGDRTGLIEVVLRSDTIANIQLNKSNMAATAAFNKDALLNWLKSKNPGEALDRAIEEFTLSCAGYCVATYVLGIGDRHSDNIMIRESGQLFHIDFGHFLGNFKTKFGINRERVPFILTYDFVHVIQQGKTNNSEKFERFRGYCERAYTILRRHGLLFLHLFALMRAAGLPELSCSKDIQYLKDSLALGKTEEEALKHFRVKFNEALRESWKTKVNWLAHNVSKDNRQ
PI3Kδ, sequence (P27986 whole entry partner): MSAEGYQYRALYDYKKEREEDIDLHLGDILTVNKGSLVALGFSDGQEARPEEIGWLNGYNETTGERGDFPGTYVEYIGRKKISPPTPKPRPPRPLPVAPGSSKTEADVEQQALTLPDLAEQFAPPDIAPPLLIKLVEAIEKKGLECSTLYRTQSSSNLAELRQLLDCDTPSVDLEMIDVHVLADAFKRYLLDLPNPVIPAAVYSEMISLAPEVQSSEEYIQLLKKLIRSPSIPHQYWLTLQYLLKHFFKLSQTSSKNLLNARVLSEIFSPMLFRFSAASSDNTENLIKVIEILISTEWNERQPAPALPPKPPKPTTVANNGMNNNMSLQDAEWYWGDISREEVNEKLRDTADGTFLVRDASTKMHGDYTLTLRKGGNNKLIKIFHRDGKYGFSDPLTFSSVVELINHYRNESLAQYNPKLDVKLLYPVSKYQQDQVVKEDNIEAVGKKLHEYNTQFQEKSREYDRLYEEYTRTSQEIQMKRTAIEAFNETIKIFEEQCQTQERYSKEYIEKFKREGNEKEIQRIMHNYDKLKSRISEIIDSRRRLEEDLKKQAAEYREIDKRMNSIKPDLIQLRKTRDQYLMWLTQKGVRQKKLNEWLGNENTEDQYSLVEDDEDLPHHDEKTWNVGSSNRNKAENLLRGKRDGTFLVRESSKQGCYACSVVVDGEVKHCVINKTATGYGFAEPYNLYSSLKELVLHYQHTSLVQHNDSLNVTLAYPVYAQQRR
PI3Kδ (p110δ/p85α), sequence (O00329 whole entry): as the sequence (O00329 whole entry) above
PI3Kδ (p110δ/p85α), sequence (P27986 whole entry partner): as the sequence (P27986 whole entry partner) above
PI3Kβ, sequence (P42338 whole entry): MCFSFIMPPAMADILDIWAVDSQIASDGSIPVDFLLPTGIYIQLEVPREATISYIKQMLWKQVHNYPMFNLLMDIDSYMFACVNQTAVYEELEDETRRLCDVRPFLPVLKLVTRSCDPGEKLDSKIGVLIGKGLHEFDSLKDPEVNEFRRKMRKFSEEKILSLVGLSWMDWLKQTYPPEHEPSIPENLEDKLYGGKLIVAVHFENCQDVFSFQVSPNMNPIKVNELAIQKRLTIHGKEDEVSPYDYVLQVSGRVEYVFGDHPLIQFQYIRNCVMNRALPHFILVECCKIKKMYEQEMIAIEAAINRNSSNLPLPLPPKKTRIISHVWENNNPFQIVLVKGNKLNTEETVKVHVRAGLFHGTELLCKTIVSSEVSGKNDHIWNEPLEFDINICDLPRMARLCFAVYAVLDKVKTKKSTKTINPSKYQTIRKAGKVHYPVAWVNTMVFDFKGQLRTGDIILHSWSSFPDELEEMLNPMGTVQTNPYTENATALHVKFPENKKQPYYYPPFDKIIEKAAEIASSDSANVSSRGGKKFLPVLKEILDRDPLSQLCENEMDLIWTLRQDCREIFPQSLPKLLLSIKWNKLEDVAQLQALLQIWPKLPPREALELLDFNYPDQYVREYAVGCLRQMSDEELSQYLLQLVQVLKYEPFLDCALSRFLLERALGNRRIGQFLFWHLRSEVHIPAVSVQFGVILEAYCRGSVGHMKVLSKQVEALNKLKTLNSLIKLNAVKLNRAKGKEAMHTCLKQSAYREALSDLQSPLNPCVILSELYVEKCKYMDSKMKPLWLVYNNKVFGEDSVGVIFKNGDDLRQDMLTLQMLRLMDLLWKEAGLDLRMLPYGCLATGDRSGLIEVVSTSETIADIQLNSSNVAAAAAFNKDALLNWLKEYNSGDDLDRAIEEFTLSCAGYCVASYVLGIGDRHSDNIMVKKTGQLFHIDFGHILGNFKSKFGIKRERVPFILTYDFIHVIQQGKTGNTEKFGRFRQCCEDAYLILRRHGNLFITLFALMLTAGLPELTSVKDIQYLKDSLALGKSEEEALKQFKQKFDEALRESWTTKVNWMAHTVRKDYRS
PI3Kβ, sequence (P27986 whole entry partner): as the sequence (P27986 whole entry partner) above
PI3Kα, sequence (P42336 whole entry, canonical isoform): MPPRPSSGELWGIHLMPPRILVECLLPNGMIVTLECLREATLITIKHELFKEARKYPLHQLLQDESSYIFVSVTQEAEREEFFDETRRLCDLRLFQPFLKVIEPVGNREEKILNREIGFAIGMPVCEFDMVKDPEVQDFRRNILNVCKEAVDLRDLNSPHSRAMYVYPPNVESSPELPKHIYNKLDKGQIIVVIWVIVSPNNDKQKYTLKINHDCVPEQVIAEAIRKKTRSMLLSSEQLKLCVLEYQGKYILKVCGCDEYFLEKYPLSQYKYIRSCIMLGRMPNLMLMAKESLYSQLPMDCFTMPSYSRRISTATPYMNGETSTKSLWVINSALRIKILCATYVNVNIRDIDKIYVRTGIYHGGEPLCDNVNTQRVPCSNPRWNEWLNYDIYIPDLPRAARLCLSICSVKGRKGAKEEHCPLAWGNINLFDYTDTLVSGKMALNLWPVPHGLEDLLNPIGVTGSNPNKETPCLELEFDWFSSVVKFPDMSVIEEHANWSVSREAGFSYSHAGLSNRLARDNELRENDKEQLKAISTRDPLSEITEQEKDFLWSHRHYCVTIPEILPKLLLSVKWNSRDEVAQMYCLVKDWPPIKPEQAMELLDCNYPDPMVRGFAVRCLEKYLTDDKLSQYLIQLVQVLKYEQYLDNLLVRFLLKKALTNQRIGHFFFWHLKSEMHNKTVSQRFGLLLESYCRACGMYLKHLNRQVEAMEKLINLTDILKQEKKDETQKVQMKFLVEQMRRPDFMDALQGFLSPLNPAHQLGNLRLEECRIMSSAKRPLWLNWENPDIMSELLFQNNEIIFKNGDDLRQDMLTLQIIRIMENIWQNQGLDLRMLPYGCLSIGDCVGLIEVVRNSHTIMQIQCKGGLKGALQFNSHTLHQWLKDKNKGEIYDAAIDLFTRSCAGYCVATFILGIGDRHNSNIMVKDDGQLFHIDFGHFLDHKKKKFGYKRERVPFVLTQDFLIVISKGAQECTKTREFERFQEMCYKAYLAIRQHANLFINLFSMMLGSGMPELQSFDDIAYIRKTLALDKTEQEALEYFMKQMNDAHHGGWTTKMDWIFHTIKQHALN
PI3Kα, sequence (P27986 whole entry partner, canonical isoform): as the sequence (P27986 whole entry partner) above

CCOc1c([C@H](C)n2nc(C)c3c(N)ncnc32)cc(Cl)c(F)c1[C@@H]1CNC(=O)C1.Cl [(R)-4-(3-((S)-1-(4-amino-3-methyl-1H-pyrazolo[3,4-d]pyrimidin-1-yl)ethyl)-5-chloro-2-ethoxy-6-fluorophenyl)pyrrolidin-2-one hydrochloride]
fold selectivity for PI3Kδ over PI3Kα [1]: > 100 fold | selectivity for PI3Kδ [2]: selective inhibitor for PI3Kδ | fold selectivity for PI3Kδ over PI3Kβ [3]: > 100 fold | fold selectivity for PI3Kδ over PI3Kγ [4]: > 100 fold

CCOc1c([C@H](C)n2nc(C)c3c(N)ncnc32)cc(Cl)c(F)c1[C@@H]1CNC(=O)C1 [compound of Formula I, (R)-4-(3-((S)-1-(4-amino-3-methyl-1H-pyrazolo[3,4-d]pyrimidin-1-yl)ethyl)-5-chloro-2-ethoxy-6-fluorophenyl)pyrrolidin-2-one]
IC50 [5]: ≤ 0.01 µM

Source: patent US10336759B2, “Salts and processes of preparing a PI3K inhibitor” (Incyte Corporation, priority 2015, dated 2019)
